# Active and inactive are the calls of the source.
# Legend:
# [1] = target: DNA damage-inducible transcript 3 protein (Mus musculus, UniProt P35639); format: functional, Cricetulus griseus
# [2] = target: Coagulation factor XII (Homo sapiens, UniProt P00748); format: functional;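 further: activated factor XIIa alpha cleaving a fluorogenic AMC peptide substrate; inhibitor potency from loss of enzyme activity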
# [3] = Intein inhibitors as potential Tuberculosis drugs, a cytotoxicity screen. [Related pubchem assays (depositor defined):AID2221, AID2223, AID434968, AID435010, AID449749, AID449750, AID489010]; format: functional
# [4] = target: T1, Replicative DNA helicase DnaB (Mycobacterium tuberculosis, UniProt P9WMR3); experiment: DnaB intein splicing inhibitors, dose response, biochemical, cell-free fluorescence (AID 449749); format: functional
# T1 sequence (P9WMR3 whole entry): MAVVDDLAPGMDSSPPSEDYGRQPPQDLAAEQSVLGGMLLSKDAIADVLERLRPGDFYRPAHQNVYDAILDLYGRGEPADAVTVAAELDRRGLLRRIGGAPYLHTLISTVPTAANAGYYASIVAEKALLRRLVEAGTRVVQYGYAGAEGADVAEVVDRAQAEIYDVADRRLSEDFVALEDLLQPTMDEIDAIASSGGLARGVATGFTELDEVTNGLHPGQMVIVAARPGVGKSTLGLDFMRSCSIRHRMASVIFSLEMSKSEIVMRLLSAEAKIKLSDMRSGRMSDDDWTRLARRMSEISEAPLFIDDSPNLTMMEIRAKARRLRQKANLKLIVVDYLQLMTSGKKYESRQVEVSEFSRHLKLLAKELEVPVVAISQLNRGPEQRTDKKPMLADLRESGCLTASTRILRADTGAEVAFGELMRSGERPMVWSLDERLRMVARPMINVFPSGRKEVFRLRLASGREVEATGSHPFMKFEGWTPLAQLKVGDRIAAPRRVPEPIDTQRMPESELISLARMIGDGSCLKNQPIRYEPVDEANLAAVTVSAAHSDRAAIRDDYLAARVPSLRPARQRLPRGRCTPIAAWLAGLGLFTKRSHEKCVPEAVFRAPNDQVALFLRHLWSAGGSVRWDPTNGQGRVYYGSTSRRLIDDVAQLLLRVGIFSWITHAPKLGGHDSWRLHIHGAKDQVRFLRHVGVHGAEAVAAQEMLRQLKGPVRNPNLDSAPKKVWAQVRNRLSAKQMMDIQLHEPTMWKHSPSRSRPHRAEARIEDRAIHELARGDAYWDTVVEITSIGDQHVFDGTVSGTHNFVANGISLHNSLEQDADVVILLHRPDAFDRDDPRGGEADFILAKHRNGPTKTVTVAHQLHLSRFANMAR
# [5] = target: T2, Protein RecA (Mycobacterium tuberculosis, UniProt P9WHJ3); experiment: Fluorescence Cell-Free Homogeneous Dose Retest to Identify Inhibitors of RecA-Intein Splicing Activity. [Related pubchem assays (depositor defined):AID2097, AID2223, AID489010, AID492950]; format: functional
# T2 sequence (P9WHJ3 whole entry): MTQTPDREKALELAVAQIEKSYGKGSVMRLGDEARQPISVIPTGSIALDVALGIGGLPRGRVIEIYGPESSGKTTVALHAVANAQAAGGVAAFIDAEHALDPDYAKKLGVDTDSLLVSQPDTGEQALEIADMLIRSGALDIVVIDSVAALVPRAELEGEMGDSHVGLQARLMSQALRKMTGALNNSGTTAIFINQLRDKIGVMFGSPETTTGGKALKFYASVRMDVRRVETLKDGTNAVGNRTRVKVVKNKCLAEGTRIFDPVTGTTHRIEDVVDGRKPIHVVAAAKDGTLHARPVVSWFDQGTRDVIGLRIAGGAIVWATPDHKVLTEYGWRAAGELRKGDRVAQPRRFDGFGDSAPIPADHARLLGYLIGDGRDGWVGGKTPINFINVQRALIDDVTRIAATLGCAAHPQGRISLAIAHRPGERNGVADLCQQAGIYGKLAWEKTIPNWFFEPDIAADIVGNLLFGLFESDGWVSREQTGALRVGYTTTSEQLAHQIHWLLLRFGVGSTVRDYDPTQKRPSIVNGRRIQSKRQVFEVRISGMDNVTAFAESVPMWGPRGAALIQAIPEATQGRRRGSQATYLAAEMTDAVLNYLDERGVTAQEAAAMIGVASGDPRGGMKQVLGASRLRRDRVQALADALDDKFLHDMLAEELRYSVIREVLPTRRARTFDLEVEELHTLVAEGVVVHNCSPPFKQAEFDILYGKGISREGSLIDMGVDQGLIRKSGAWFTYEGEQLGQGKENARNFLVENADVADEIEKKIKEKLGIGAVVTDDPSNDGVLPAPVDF
# [6] = target: Melanocortin receptor 4 (Homo sapiens, UniProt P32245); format: functional, cell-based;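 further: Cell-based assay with luminescence read-out, confirmatory dose-response testing for agonist activity of biased ligands at MC4R; human U2OS cells with tagged receptor and beta-arrestin; potency of agonists that increase receptor coupling to beta-arrestin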
# [7] = target: Sphingosine 1-phosphate receptor 1 (Homo sapiens, UniProt P21453); experiment: Fluorescence-based counterscreen assay for S1P4 agonists: Cell-based dose response high throughput screening assay to identify agonists of the Sphingosine 1-Phosphate Receptor 1 (S1P1). [Related pubchem assays (depositor defined):AID1509, AID1523, AID1801, AID463107, AID463118, AID463119, AID463122, AID463123, AID463129, AID463225, AID504400, AID504460]; format: functional
# [8] = target: T3, Sphingosine 1-phosphate receptor 4 (Homo sapiens, UniProt O95977); experiment: Fluorescence dose response cell-based high throughput screening assay for agonists of the Sphingosine 1-Phosphate Receptor 4 (S1P4). [Related pubchem assays: 1509 (Primary screen.), 1523 (Confirmation screen in triplicates.)]; format: functional
# T3 sequence (O95977 whole entry): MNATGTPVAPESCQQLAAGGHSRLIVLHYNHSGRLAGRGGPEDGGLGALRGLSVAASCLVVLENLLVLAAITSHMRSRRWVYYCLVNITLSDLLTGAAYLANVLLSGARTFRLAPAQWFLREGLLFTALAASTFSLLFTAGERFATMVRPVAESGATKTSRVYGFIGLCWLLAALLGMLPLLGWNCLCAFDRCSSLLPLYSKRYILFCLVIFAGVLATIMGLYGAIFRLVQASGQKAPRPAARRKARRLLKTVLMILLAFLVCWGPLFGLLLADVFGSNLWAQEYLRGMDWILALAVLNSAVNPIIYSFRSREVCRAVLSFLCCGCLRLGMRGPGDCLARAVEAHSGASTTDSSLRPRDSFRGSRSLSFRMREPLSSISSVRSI
# [9] = test system: Saccharomyces cerevisiae; experiment: NALP1 inhibitor project selectivity study, Caspase-1/ASC signal blockade IC50 in S. cerevisiae (AID 488863); format: functional, organism-based
# [10] = Luminescence Cell-Based Dose Retest to Confirm Inhibitors of Cancer Stem Cells. [Related pubchem assays (depositor defined):AID2717, AID2721]; format: functional; settings: Homo sapiens
# [11] = target: NACHT, LRR and PYD domains-containing protein 1 (Homo sapiens, UniProt Q9C000); experiment: NALP1 inhibitors in yeast, dose response, luminescent (AID 488860); format: functional
# [12] = target: Beta-galactosidase (Escherichia coli, UniProt Q8VNN2); experiment: beta-galactosidase enzyme inhibitors and activators, dose response, artefact control for CCR6 antagonist project, biochemical, E. coli enzyme, set 3 (AID 504712); format: functional
# [13] = target: Heat shock protein HSP 90-alpha (Homo sapiens, UniProt P07900); format: functional, organism-based
# [14] = target: T4, G-protein coupled receptor 55 (Homo sapiens, UniProt Q9Y2T6); experiment: GPR55 agonists via beta-arrestin recruitment, primary screen, imaging, U2OS cells, beta-arrestin-GFP redistribution (AID 1961); format: functional
# [15] = target: T5, Mannose-6-phosphate isomerase (Homo sapiens, UniProt P34949); experiment: PMI enzyme inhibitors, confirmation, biochemical, fluorescence intensity (AID 1535)
# T5 sequence (P34949 whole entry): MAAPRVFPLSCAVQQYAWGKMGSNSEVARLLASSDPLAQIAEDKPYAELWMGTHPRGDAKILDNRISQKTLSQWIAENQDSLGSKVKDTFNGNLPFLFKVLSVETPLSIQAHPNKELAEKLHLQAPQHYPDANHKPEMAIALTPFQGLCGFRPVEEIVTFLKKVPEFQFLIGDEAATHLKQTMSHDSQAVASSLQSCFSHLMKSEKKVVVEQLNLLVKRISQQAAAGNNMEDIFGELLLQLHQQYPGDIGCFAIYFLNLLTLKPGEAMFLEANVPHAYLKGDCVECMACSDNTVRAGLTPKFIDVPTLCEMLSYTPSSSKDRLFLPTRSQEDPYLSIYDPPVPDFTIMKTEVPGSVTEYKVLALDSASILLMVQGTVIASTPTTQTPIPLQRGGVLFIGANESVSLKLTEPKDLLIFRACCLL
# [16] = target: Phosphomannomutase 2 (Homo sapiens, UniProt O15305); experiment: Counter screen SAR assay for PMM2 inhibitors via a fluorescence intensity assay. [Related pubchem assays (depositor defined):AID1545, AID1574]
# [17] = target: Hexokinase (Trypanosoma brucei, UniProt Q38C41); experiment: Confirmation assay for inhibitors of Trypanosoma brucei hexokinase 1-Analogue-first series. [Related pubchem assays (depositor defined):AID1430, AID1632, AID2516, AID2560, AID2579, AID2600, AID449725, AID492951]; format: functional
# [18] = target: T6, Type-1 angiotensin II receptor (Homo sapiens, UniProt P30556); experiment: AT1 receptor agonists, dose response, selectivity assay for APJ receptor agonist project, cell-based, uHTS hits (AID 488865); format: functional;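 further: beta-arrestin recruitment to AT1 measured by enzyme fragment complementation luminescence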
# T6 sequence (P30556 whole entry): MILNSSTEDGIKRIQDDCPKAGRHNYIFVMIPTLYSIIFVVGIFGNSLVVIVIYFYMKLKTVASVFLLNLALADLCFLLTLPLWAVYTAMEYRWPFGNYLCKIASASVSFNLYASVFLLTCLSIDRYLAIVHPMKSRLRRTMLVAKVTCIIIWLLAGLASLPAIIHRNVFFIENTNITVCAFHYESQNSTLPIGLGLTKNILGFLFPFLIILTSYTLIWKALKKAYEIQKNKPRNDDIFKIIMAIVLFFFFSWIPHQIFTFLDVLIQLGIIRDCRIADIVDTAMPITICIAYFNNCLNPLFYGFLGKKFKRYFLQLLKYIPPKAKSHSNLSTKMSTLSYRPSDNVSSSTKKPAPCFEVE
# [19] = target: Voltage-dependent T-type calcium channel subunit alpha-1H (Homo sapiens, UniProt O95180); experiment: Cav3.2 T-type channel inhibitors, cell-based, synthetic library set 1, calcium flux (AID 493022); format: functional
# [20] = target: T7, Cannabinoid receptor 2 (Homo sapiens, UniProt P34972); experiment: SAR analysis of antagonists of the Cannabinoid Receptor 2 using an Image-Based Assay - Set 2. [Related pubchem assays (depositor defined):AID1961, AID1965]; format: functional
# [21] = target: T4, G-protein coupled receptor 55; experiment: SAR analysis of selective Agonists of GPR55 using an Image-Based Assay - Set 2. [Related pubchem assays (depositor defined):AID1961, AID1965]; format: functional
# [22] = target: T7, Cannabinoid receptor 2; experiment: SAR analysis of agonists of the Cannabinoid Receptor 2 using an Image-Based Assay - Set 2. [Related pubchem assays (depositor defined):AID1961, AID1965]; format: functional
# [23] = target: T8, G-protein coupled receptor 35 (Homo sapiens, UniProt Q9HC97); experiment: SAR analysis of Agonists of the GPR35 Receptor using an Image-Based Assay - Set 3. [Related pubchem assays (depositor defined):AID1961, AID1965]; format: functional
# [24] = target: T9, Cannabinoid receptor 1 (Homo sapiens, UniProt P21554); experiment: SAR analysis of antagonists of the Cannabinoid Receptor 1 using an Image-Based Assay - Set 3. [Related pubchem assays (depositor defined):AID1961, AID1965]; format: functional
# [25] = target: T9, Cannabinoid receptor 1; experiment: SAR analysis of agonists of the Cannabinoid Receptor 1 using an Image-Based Assay - Set 3. [Related pubchem assays (depositor defined):AID1961, AID1965]; format: functional
# [26] = target: T8, G-protein coupled receptor 35; experiment: SAR analysis of Antagonists of the GPR35 Receptor using an Image-Based Assay - Set 4. [Related pubchem assays (depositor defined):[…]]; format: functional
# 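Wherever CC50 is given: cells exposed to compound for 72 hours before luminescence readout.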
# T9 sequence (P21554 whole entry): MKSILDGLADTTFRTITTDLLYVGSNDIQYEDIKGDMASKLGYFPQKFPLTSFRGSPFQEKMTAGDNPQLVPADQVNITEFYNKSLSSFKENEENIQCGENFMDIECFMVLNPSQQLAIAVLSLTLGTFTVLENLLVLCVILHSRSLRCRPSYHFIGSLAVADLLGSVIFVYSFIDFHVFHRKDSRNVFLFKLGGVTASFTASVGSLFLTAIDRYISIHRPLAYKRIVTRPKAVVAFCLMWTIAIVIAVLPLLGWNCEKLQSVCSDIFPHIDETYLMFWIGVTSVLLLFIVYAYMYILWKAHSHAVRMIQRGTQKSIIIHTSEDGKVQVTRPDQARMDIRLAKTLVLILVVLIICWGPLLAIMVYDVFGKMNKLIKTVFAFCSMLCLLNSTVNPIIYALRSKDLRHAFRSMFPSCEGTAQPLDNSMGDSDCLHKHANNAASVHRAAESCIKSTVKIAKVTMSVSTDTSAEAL
# T8 sequence (Q9HC97 whole entry): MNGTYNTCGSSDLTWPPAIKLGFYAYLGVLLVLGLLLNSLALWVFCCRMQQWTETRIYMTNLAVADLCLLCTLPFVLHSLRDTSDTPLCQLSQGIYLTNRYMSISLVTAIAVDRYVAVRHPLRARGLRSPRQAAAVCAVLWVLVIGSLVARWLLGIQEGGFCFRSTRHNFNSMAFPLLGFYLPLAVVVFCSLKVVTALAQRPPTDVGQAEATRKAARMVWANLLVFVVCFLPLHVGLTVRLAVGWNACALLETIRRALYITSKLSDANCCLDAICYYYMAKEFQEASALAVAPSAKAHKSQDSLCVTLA
# T7 sequence (P34972 whole entry): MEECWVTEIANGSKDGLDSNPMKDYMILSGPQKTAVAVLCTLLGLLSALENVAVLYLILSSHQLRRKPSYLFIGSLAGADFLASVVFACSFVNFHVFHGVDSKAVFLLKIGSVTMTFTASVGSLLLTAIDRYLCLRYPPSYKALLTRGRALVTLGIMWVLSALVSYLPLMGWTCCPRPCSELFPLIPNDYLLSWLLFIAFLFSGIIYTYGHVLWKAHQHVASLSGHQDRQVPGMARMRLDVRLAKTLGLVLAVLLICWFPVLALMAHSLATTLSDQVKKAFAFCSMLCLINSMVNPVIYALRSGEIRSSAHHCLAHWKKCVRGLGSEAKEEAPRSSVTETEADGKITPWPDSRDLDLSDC
# T4 sequence (Q9Y2T6 whole entry): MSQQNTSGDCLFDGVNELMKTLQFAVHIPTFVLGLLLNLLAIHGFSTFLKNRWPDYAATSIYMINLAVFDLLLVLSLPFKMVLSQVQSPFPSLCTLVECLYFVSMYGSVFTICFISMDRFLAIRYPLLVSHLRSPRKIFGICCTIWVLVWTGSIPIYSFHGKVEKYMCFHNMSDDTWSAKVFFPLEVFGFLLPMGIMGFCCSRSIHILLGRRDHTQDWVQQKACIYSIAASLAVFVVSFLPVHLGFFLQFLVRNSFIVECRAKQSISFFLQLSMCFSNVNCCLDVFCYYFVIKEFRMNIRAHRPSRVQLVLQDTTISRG
# Voltage-dependent T-type calcium channel subunit alpha-1H, sequence (O95180 whole entry): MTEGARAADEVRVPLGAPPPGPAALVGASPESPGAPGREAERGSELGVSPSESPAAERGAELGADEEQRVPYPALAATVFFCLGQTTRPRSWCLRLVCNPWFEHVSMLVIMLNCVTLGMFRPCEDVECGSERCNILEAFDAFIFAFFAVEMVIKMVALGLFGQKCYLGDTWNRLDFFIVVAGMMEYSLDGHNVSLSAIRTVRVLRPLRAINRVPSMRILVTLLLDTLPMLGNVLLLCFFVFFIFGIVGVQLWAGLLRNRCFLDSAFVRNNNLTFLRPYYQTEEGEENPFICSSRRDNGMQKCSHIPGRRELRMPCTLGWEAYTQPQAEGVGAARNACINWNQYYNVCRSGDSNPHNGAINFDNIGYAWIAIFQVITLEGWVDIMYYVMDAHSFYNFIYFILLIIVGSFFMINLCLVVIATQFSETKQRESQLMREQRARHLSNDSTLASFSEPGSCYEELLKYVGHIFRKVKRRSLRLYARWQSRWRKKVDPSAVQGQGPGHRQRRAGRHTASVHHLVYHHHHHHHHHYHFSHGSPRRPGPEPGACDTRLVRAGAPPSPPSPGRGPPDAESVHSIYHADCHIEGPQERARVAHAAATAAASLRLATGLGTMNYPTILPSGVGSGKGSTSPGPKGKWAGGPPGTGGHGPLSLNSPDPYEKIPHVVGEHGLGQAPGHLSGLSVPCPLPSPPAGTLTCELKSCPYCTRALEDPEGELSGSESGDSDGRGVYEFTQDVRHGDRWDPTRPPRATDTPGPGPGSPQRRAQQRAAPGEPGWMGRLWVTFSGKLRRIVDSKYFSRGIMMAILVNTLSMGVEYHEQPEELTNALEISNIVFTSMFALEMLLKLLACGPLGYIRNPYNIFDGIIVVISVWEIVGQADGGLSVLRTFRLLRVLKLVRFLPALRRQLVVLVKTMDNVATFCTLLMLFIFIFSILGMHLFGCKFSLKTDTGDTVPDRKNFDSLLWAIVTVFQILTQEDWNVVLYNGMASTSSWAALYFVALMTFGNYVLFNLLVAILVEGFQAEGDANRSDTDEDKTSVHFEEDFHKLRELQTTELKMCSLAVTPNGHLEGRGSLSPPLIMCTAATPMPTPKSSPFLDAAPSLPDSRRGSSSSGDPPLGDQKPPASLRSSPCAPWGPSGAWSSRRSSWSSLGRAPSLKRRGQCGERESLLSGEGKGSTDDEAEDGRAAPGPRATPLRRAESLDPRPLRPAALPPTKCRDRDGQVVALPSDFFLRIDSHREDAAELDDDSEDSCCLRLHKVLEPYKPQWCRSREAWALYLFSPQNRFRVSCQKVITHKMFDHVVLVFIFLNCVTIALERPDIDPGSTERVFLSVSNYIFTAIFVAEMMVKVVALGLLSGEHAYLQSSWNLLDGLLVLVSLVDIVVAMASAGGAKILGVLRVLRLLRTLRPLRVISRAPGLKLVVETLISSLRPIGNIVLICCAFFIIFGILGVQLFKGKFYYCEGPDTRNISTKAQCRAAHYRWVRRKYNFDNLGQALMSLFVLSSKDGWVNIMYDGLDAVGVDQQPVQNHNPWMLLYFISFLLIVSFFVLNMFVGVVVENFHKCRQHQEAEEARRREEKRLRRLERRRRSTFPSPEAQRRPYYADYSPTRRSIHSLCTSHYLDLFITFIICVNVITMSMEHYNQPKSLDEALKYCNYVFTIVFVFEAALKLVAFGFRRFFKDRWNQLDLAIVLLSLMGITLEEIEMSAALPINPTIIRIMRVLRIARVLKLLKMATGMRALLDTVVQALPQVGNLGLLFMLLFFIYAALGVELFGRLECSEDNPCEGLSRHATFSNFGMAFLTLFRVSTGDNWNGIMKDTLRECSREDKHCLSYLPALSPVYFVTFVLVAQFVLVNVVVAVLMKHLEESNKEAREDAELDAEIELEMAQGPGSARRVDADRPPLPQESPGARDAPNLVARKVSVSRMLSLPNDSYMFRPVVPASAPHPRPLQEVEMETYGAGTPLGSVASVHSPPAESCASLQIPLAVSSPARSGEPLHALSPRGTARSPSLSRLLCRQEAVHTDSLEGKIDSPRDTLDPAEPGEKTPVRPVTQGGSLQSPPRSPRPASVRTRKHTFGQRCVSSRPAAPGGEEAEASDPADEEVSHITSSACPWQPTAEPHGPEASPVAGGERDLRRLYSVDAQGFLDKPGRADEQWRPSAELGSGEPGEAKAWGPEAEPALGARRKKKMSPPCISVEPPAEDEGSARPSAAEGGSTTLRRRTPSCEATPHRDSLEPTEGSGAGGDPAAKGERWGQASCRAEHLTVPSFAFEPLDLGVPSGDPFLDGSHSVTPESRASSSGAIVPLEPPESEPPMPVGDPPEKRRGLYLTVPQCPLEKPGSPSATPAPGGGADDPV
# Coagulation factor XII, sequence (P00748 20-372 limits assumed): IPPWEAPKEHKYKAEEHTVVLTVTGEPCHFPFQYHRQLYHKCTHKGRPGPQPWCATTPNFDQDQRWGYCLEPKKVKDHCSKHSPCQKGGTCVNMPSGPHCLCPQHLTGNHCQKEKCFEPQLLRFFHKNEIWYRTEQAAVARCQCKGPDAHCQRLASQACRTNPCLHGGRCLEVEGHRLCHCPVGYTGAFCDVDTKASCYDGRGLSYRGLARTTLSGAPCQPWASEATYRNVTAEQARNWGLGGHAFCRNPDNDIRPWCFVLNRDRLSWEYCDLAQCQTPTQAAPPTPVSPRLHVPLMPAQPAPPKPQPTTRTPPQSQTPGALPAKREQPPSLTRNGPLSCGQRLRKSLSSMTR
# Coagulation factor XII, sequence (P00748 373-615 limits assumed): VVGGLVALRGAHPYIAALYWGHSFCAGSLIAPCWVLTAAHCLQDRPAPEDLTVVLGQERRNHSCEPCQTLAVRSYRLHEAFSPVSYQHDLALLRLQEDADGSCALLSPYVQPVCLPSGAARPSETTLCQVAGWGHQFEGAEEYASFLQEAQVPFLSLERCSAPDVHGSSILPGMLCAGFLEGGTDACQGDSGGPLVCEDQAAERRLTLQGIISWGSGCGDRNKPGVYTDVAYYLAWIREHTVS
# Hexokinase, sequence (Q38C41 whole entry, the tested form may be a part): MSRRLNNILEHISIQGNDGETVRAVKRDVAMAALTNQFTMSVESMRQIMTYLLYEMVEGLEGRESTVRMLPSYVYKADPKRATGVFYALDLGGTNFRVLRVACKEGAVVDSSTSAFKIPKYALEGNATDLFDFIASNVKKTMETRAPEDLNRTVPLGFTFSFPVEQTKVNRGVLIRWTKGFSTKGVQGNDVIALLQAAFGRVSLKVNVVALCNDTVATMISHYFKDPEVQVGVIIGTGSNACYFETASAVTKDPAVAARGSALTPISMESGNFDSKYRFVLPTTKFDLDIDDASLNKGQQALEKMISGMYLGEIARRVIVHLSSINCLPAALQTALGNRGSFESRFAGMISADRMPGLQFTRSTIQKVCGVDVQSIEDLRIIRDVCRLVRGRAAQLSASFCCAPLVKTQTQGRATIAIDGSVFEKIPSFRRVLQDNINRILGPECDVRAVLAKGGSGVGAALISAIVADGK
smiles,measurement,setting,value
CC(C)(C)C1C/C(=C/c2ccco2)C(=O)/C(=C/c2ccco2)C1 (stereo unspecified),Absolute IC50 (CHOP),[1],< 10 µM
Cc1cc(=O)oc2cc(OC(=O)CCN3C(=O)c4ccccc4C3=O)ccc12,IC50,[2],> 50 µM (inactive)
Cc1ccc(Sc2ccc(NC(=O)CCl)cc2)cc1C,CC50,[3],7.87 µM (active)
same,AC50,[4],2.51 µM (active)
same,EC50,[5],0.716 µM (active)
same,EC50,[6],> 89.2 µM (inactive)
CCN(c1ccccc1)S(=O)(=O)c1cc([N+](=O)[O-])ccc1N,EC50,[7],> 49.8 µM (inactive)
same,EC50,[8],9.34 µM (active)
Cc1cc(N2C(=O)C=CC2=O)c([N+](=O)[O-])cc1C,IC50,[9],23.9 µM (active)
same,AC50,[10],4.18 µM (active)
same,IC50,[11],17.7 µM (active)
same,IC50,[12],> 66.6 µM (inactive)
same,AC50,[13],1.07 µM (active)
CCCc1ccc2oc(C(=O)N(Cc3ccncc3)CC3CCCO3)c(C)c2c1 (stereo unspecified),EC50,[14],11.2 µM (inactive)
COc1ccc(C/N=c2\ssnc2Cl)cc1,IC50,[15],15.5 µM (active)
same,IC50,[16],> 100 µM (inactive)
O=c1c2cc(N3CCOCC3)ccc2sn1-c1ccccc1,IC50,[17],4.46 µM (active)
CCOc1cc2[nH]c(=S)n(CCN3CCC(C)CC3)c(=O)c2cc1OCC,EC50,[18],> 100 µM (inactive)
Cc1ccc(-c2nnc(NC(=O)COc3ccc(F)cc3Cl)o2)cc1C,EC50,[19],1.1 µM (active)
COc1ccc(S(=O)(=O)N2CCOCC2)cc1NC(=O)c1cc2c(s1)CCCCC2,IC50,[20],> 32 µM (inactive)
same,EC50,[21],> 32 µM (inactive)
same,EC50,[22],> 32 µM (inactive)
same,EC50,[23],> 32 µM (inactive)
same,IC50,[24],20.6 µM (inactive)
same,EC50,[25],> 32 µM (inactive)
same,IC50,[26],> 32 µM (inactive)
